Measured values as given in patent publication US6677310B1, “Ring-expanded nucleosides and nucleotides” (Nabi, priority 1999, dated 2004).

Legend:
NCI-H522 = format: cell-based, human; conditions: NCI-H522 (Non-Small Cell Lung Cancer), 48 h
[1] = biological target: T1, adenosine deaminase (Type IV) from bovine spleen (Bos taurus, UniProt P56658); experiment: Inhibition of adenosine deaminase (Example 9); format: biochemical; conditions: Lineweaver-Burk plot
T1 construct: adenosine deaminase (Type IV) from bovine spleen (a suspension in 3.2 M (NH4)2SO4, pH 6); from tissue; host or cells: bovine spleen
T1 sequence (P56658 whole entry): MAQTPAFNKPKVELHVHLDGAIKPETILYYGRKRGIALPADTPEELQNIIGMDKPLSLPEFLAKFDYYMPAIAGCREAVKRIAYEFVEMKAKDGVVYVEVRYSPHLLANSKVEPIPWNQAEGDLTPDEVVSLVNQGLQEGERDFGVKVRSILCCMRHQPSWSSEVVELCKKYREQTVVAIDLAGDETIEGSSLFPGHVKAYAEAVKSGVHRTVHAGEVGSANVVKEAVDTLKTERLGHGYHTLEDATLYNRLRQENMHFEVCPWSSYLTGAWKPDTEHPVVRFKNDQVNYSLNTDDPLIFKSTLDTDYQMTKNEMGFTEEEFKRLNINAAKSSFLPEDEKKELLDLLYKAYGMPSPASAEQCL
From the text: The concentration of inhibitor, the title compound, used for the present study ranged from 4.6×10^−5 to 9.2×10^−5 M. The enzyme concentration used for each of the assays was 0.0235 units/mL. As computed by the Lineweaver-Burk plot.

[2] = biological target: T2, bacteriophage T7 RNA polymerase (Escherichia phage T7, UniProt P00573); experiment: Transcription catalyzed by T7 RNA polymerase; format: biochemical
T2 construct: purchased Promega P2075
T2 sequence (P00573 whole entry): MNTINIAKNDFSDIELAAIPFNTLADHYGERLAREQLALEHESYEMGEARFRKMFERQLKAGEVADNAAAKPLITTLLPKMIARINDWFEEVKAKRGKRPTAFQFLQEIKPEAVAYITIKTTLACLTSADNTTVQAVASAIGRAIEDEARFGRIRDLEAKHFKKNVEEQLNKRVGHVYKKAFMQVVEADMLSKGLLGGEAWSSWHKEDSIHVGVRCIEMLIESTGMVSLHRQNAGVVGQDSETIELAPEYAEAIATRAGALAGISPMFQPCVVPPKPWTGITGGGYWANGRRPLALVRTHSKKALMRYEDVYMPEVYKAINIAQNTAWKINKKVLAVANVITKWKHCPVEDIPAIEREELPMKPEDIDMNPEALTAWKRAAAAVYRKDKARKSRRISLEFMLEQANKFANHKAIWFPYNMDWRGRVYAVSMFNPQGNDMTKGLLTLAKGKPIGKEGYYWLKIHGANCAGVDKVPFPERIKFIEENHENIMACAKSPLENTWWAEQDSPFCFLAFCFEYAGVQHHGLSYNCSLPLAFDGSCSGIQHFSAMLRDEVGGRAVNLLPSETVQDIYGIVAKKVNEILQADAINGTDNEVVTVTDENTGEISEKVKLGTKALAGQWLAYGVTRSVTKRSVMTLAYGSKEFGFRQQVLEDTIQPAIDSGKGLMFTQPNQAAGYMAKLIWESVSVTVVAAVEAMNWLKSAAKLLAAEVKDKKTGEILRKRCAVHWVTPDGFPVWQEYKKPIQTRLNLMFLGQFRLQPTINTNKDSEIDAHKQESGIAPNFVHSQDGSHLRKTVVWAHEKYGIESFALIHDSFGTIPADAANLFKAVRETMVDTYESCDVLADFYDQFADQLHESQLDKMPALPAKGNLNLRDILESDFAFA
Experimental: To show whether the “fat” nucleotide Compound 15-2 (FNTP) is incorporated into RNA during transcription, experiments were performed using bacteriophage T7 RNA polymerase (RNAP) and a synthetic 42-mer DNA template shown below that is annealed to a 17-nucleotide promoter specific for T7 RNAP. This promoter-template enables the synthesis of 25-mer RNA, and the purine analogue may be incorporated in positions +1, +11, +13, +15, +21, +22, and +23.
Transcription reaction conditions were optimized with the use of ^32P CTP for labeling RNA transcripts. Polyacrylimide gel electrophoresis of the transcription products obtained from the 42-mer template, using 1 mM each of four natural NTPs, reveled a 25-mer RNA as the major product, together with shorter and longer labeled transcripts (FIG. 9, lane 1). The additional bands observed are consistent with the known ability of T7 RNA polymerase to add non-coded residues at the 3′-end of transcripts. (Milligan, J. F., et al., Nuc. Acids Res., 15, 8783-8798, 1987) With the use of 1 mM nucleotide Compound 15-2 (FNTP), the yield of transcription was reduced (lane 2).
With the use of a synthetic 37-mer DNA template, annealed to a 17-nucleotide promoter for T7 RNAP as shown below, a 20 nucleotide-long transcript RNA was obtained when the reaction mixture contained all four NTPs in appropriate concentrations, along with many shorter “abortive” fragments. (Milligan, J. F., et al., Nuc. Acids Res., 15, 8783-8798, 1987). For the reaction with modified nucleotide, typically
the concentration of the appropriate natural nucleotide was reduced. […] (Milligan, J. F., et al., Methods in Enzymol., 180, 51-63, 1989.) In the present experiments, the synthesis of RNA was compared under standard conditions (using 4 NTPs in 0.2 mM concentration each) with the synthesis of RNA by using an additional “fat” nucleoside triphosphate Compound 15-2 (FNTP) in varying (0.05-10 mM) concentrations. The reaction mixtures were incubated at 37° C. for 2 hours, and the products were denatured in a buffer containing urea. The products were separated by 20% polyacrylamide-urea gel electrophoresis and visualized by autoradiography.
Transcription samples (total volume 10 μL contained: 40 mM Tris-HCl pH 8.1 with 6 mM MgCl2, 5 mM dithiothreitol (DTT), 1 mM spermidine, 0.01% Triton-X 100, 50 μg/mL bovine serum albumin, 250 nM synthetic DNA template with a promotor for T7 RNAP, 4 units of T7 RNA polymerase, and 0.2 mM ribonucleoside triphosphates. A single α^32P-labeled NTP was added for labeling (typicallly 1 μL of 10 mCi/mL ). Inhibition assays were monitored with varying concentrations (0.05-10 mM) of nucleotide Compound 15-2. Polyacrylamide gel (20%) electrophoresis was performed on slab gels (18 cm×16 cm, or 35 cm×44 cm) containing 8M urea. […]

[3] = biological target: T3, adenosine deaminase from calf intestinal mucosa (Bos taurus, UniProt P56658); experiment: Adenosine deaminase assay (Example 17); format: biochemical; conditions: Lineweaver-Burk plots; with and without preincubation
T3 construct: against adenosine deaminase from calf intestinal mucosa; from tissue; host or cells: calf intestinal mucosa
T3 sequence (P56658 whole entry): as the sequence (P56658 whole entry) above
Experimental: Inhibition of adenosine deaminase (ADA) by Compound 17-1 and Compound 17-2 (see FIG. 13 for chemical structures; note that structure 1 FIG. 13 is the same as that in figure except that it is written in an anti-conformation in the former) was investigated in vitro against adenosine deaminase from calf intestinal mucosa in a 50 mM phosphate buffer (pH=7.4) at 25° C., by spectro-photometrically monitoring the rate of hydrolysis of substrate adenosine at 265 nm. Stock solutions of the substrate, enzyme, and inhibitors were prepared using a 50 mM phosphate buffer (pH 7.4). The enzyme kinetics was followed by measuring the change in optical density (decrease in absorbance) per minute of the substrate adenosine. By keeping the concentration of the inhibitor constant, and by varying the substrate concentration, a set of kinetic data was obtained. Additional sets of data were generated using different concentrations of the inhibitor. […]
(a) pre-incubation of the enzyme with the inhibitor; here the enzyme (ADA 10 μL) and inhibitor were preincubated for 10 min in a calculated amount of phosphate buffer (50 mM, pH 7.5 ) at 25° C. and the reaction was initiated by the addition of substrate, adenosine, and (b) without preincubation; here the reaction was started by addition of ADA (10 μL) to a mixture of adenosine and inhibitor in the phosphate buffer at 25° C. […]

N=c1[nH]c(=O)c2ncn([C@@H]3O[C@H](CO)[C@@H](O)[C@H]3O)c2c(=O)[nH]1 [Compound 14-1, 6-Imino-6H-1-β-D-ribofuranosyl-4,5,7,8-tetrahydroimidazo[4,5-e][1,3]diazepine-4,8-dione]
GI50 (NCI-H522): > 100 µM | TGI (NCI-H522): >100 µM | CC50 (NCI-H522; read-out: LC50 (the source's name)): > 100 µM

N=c1nc(N)c2ncn([C@@H]3O[C@H](CO)[C@@H](O)[C@H]3O)c2c(N)n1 [Compound 14-2, 4,8-Diamino-6H-6-imino-1-β-D-ribofuranosylimidazo[4,5-e][1,3]diazepine]
mode of inhibition of adenosine deaminase [1]: competitive inhibitor | incorporation into RNA during transcription (substrate for T7 polymerase) ([2]; 42-mer DNA template): neither incorporation nor inhibition | inhibition of T7 RNA polymerase-catalyzed transcription ([2]; 42-mer and 37-mer DNA templates, 0.05-10 mM): failed to cause inhibition of the transcription | mode of inhibition of adenosine deaminase [3]: competitive inhibitor
